Reference: ChEMBL document CHEMBL4765295, “Synthesis, pharmacological profile and 2D-QSAR studies of curcumin-amino acid conjugates as potential drug candidates” (Eur J Med Chem, 2020)
“And” between values parts separate entries of the source, which are not always exact repeats. Equal values may be shown once.

Key:
Rattus norvegicus [1] = experiment: Antiinflammatory activity in Wistar rat model of carrageenan-induced paw edema assessed as reduction in thickness of paw edema at 10 mg/kg, ip pretreated for 1 hr followed by carrageenan challenge and measured after 1 hr (reference value: 2.41 +/-0.05 mm); format: functional; settings: time 1 hr after carrageenan
Rattus norvegicus [2] = experiment: Anti-inflammatory activity in Wistar rat assessed as inhibition of carrageenan-induced paw edema at 10 mg/kg, ip pretreated for 1 hr followed by carrageenan challenge and measured after 1 hr relative to control (reference value: 0.00 +/-0.02 %); format: functional; settings: time 2 hrs
Rattus norvegicus [3] = experiment: Antiinflammatory activity in Wistar rat model of carrageenan-induced paw edema assessed as reduction in thickness of paw edema at 10 mg/kg, ip pretreated for 1 hr followed by carrageenan challenge and measured after 2 hrs (reference value: 2.06 +/-0.09 mm); format: functional; settings: time 3 hrs
Rattus norvegicus [4] = experiment: Anti-inflammatory activity in Wistar rat assessed as inhibition of carrageenan-induced paw edema at 10 mg/kg, ip pretreated for 1 hr followed by carrageenan challenge and measured after 2 hr relative to control (reference value: 0.00 +/-0.03 %); format: functional; settings: time 3 hrs
Rattus norvegicus [5] = experiment: Antiinflammatory activity in Wistar rat model of carrageenan-induced paw edema assessed as reduction in thickness of paw edema at 10 mg/kg, ip pretreated for 1 hr followed by carrageenan challenge and measured after 3 hrs (reference value: 1.79 +/-0.07 mm); format: functional; settings: time 4 hrs
Rattus norvegicus [6] = experiment: Anti-inflammatory activity in Wistar rat assessed as inhibition of carrageenan-induced paw edema at 10 mg/kg, ip pretreated for 1 hr followed by carrageenan challenge and measured after 3 hr relative to control (reference value: 0.00 +/-0.1 %); format: functional; settings: time 4 hrs
Rattus norvegicus [7] = experiment: Antiinflammatory activity in Wistar rat model of carrageenan-induced paw edema assessed as reduction in thickness of paw edema at 10 mg/kg, ip pretreated for 1 hr followed by carrageenan challenge and measured after 4 hrs (reference value: 1.40 +/-0.10 mm); format: functional; settings: time 5 hrs
Rattus norvegicus [8] = experiment: Anti-inflammatory activity in Wistar rat assessed as inhibition of carrageenan-induced paw edema at 10 mg/kg, ip pretreated for 1 hr followed by carrageenan challenge and measured after 4 hr relative to control (reference value: 0.00 +/-0.4 %); format: functional; settings: time 5 hrs
Rattus norvegicus [9] = experiment: Antiinflammatory activity in Wistar rat model of carrageenan-induced paw edema assessed as reduction in thickness of paw edema at 10 mg/kg, ip pretreated for 1 hr followed by carrageenan challenge and measured after 24 hrs (reference value: 0.83 +/-0.08 mm); format: functional; settings: time 25 hrs
Rattus norvegicus [10] = experiment: Anti-inflammatory activity in Wistar rat assessed as inhibition of carrageenan-induced paw edema at 10 mg/kg, ip pretreated for 1 hr followed by carrageenan challenge and measured after 24 hr relative to control (reference value: 0.00 +/-0.3 %); format: functional; settings: time 25 hrs
Rattus norvegicus [11] = experiment: Anti-inflammatory activity in Wistar rat assessed as inhibition of carrageenan-induced paw edema at 10 mg/kg, ip pretreated for 1 hr followed by carrageenan challenge and measured after 4 hr relative to indomethacin; format: functional; settings: time 5 hrs
[12] = Ulcerogenic activity in fasted albino mouse assessed as incidence of gastric ulceration at 10 mg/kg, po for 3 days (reference value: 0 %); format: toxicity, organism-based; settings: in vivo, 72 h, time 3 day
[13] = Ulcerogenic activity in fasted albino mouse assessed as average number of ulcers in gastric mucosa at 10 mg/kg, po for 3 days (reference value: 0); format: toxicity, organism-based; settings: in vivo, 72 h, time 3 day
[14] = Ulcerogenic activity in fasted albino mouse assessed as average severity of ulcers in gastric mucosa at 10 mg/kg, po for 3 days (reference value: 0); format: toxicity, organism-based; settings: in vivo, 72 h, time 3 day
[15] = Ulcerogenic activity in fasted albino mouse assessed as ulcer index in gastric mucosa at 10 mg/kg, po for 3 days (reference value: 0); format: toxicity, organism-based; settings: in vivo, 72 h, time 3 day
Splenocyte [16] = experiment: Immunomodulatory activity in Swiss albino mouse splenocytes assessed as cell viability at 10 uM by measuring stimulation index incubated for 72 hrs in presence of mitogenic stimulus phytohaemagglutinin by MTT assay (reference value: 1.00 +/- 0.24); format: functional
Splenocyte [17] = experiment: Immunomodulatory activity in Swiss albino mouse splenocytes assessed as cell viability at 10 uM by measuring inhibition of stimulation index incubated for 72 hrs in presence of mitogenic stimulus phytohaemagglutinin by MTT assay relative to indomethacin; format: functional; settings: read-out: Activity
Peritoneal macrophage [18] = experiment: Antiinflammatory activity in […] mouse Peritoneal macrophages assessed as reduction in LPS-induced NO production by measuring reduction in stimulation index at 10 uM preincubated for 1 hr followed by LPS stimulation measured after 24 hrs by Griess method (reference value: 27.31 +/- 2.56 uM); format: functional; settings: time 25 hrs
Peritoneal macrophage [19] = experiment: Antiinflammatory activity in […] mouse Peritoneal macrophages assessed as inhibition of LPS-induced NO production at 10 uM preincubated for 1 hr followed by LPS stimulation measured after 24 hrs by Griess method relative to control (reference value: 0.0 %); format: functional; set-up: scale not given: the % may be the effect or the level left; settings: time 25 hrs
Mus musculus [20] = experiment: Analgesic activity in albino mouse assessed reduction in acetic acid-induced abdominal writhing by measuring writing reflex at 10 mg/kg, ip pretreated for 1 hr followed by acetic acid challenge and measured starting 5 mins post acetic acid challenge for 10 mins (reference value: 42.4 +/- 1.02); format: functional; settings: time 75 min, 1.25 h
Mus musculus [21] = experiment: Analgesic activity in albino mouse assessed protection against acetic acid-induced abdominal writhing at 10 mg/kg, ip pretreated for 1 hr followed by acetic acid challenge and measured starting 5 mins post acetic acid challenge for 10 mins relative to control (reference value: 0 %); format: functional; settings: time 75 min, 1.25 h
Mus musculus [22] = experiment: Analgesic activity in albino mouse assessed protection against acetic acid-induced abdominal writhing at 10 mg/kg, ip pretreated for 1 hr followed by acetic acid challenge and measured starting 5 mins post acetic acid challenge for 10 mins relative to indomethacin; format: functional; settings: time 75 min, 1.25 h
Mus musculus [23] = experiment: Analgesic activity in albino mouse assessed as forepaw licking/jumping latency time at 10 mg/kg, ip measured after 30 mins by hot plate test (reference value: 5.02 +/- 0.09 sec); format: functional; settings: 0.5 h
Mus musculus [24] = experiment: Analgesic activity in albino mouse assessed as protection at 10 mg/kg, ip measured after 30 mins by hot plate test (reference value: 0 %); format: functional; settings: 0.5 h
Mus musculus [25] = experiment: Analgesic activity in albino mouse assessed as forepaw licking/jumping latency time at 10 mg/kg, ip measured after 60 mins by hot plate test (reference value: 3.42 +/- 0.03 sec); format: functional; settings: 1 h
Mus musculus [26] = experiment: Analgesic activity in albino mouse assessed as protection at 10 mg/kg, ip measured after 60 mins by hot plate test (reference value: 0 %); format: functional; settings: 1 h
Mus musculus [27] = experiment: Analgesic activity in albino mouse assessed as forepaw licking/jumping latency time at 10 mg/kg, ip measured after 90 mins by hot plate test (reference value: 2.72 +/- 0.01 sec); format: functional; settings: 1.5 h
Mus musculus [28] = experiment: Analgesic activity in albino mouse assessed as protection at 10 mg/kg, ip measured after 90 mins by hot plate test (reference value: 0 %); format: functional; settings: 1.5 h
Mus musculus [29] = experiment: Analgesic activity in albino mouse assessed as forepaw licking/jumping latency time at 10 mg/kg, ip measured after 120 mins by hot plate test (reference value: 2.62 +/- 0.06 sec); format: functional; settings: 2 h
Mus musculus [30] = experiment: Analgesic activity in albino mouse assessed as protection at 10 mg/kg, ip measured after 120 mins by hot plate test (reference value: 0 %); format: functional; settings: 2 h
Mus musculus [31] = experiment: Analgesic activity in albino mouse assessed as protection at 10 mg/kg, ip measured after 120 mins by hot plate test relative to indomethacin; format: functional; settings: 2 h
Staphylococcus aureus = experiment: Antibacterial activity against Staphylococcus aureus ATCC 25923 incubated for 18 hrs by agar dilution method; format: functional
Streptococcus pyogenes = experiment: Antibacterial activity against Streptococcus pyogenes ATCC 19615 incubated for 18 hrs by agar dilution method; format: functional
Salmonella typhimurium = experiment: Antibacterial activity against Salmonella typhimurium ATCC 19430 incubated for 18 hrs by agar dilution assay; format: functional, Salmonella enterica subsp. enterica serovar Typhimurium; settings: Salmonella enterica
Pseudomonas aeruginosa = experiment: Antibacterial activity against Pseudomonas aeruginosa ATCC 27853 incubated for 18 hrs by agar dilution assay; format: functional
Candida albicans = experiment: Antifungal activity against Candida albicans incubated for 18 to 24 hrs by CLSI method; format: functional; settings: time 18-24 hrs
[32] = Toxicity in albino mouse assessed as induction of toxic symptoms at 50 to 100 mg/kg, ip measured after 24 hrs; format: organism-based; settings: in vivo, dose 50-100 mg/kg
A549 = experiment: Antiproliferative activity against human A549 cells assessed as inhibition of cell growth after 72 hrs by MTT assay; format: functional, cell-based; settings: A549, 72 h
MCF7 = experiment: Antiproliferative activity against human MCF7 cells assessed as inhibition of cell growth after 72 hrs by MTT assay; format: functional, cell-based; settings: MCF7, 72 h
PC-3 = experiment: Antiproliferative activity against human PC3 cells assessed as inhibition of cell growth after 72 hrs by MTT assay; format: functional, cell-based; settings: PC-3, 72 h

| Structure (SMILES) | Activity (Rattus norvegicus [1]) [mm] | inhibition in vivo at 10 mg/kg (Rattus norvegicus [2]) [%] | Activity (Rattus norvegicus [3]) [mm] | inhibition in vivo at 10 mg/kg (Rattus norvegicus [4]) [%] | Activity (Rattus norvegicus [5]) [mm] | inhibition in vivo at 10 mg/kg (Rattus norvegicus [6]) [%] | Activity (Rattus norvegicus [7]) [mm] | inhibition in vivo at 10 mg/kg (Rattus norvegicus [8]) [%] | Activity (Rattus norvegicus [9]) [mm] | inhibition in vivo at 10 mg/kg (Rattus norvegicus [10]) [%] | inhibition in vivo at 10 mg/kg (Rattus norvegicus [11]) [%] | Activity_index (Splenocyte [16]) | viability at 10 µM (Splenocyte [17]) [%] | Activity (Peritoneal macrophage [18]) [µM] | Activity (Peritoneal macrophage [19]) [%] | MIC (Staphylococcus aureus) | MIC (Streptococcus pyogenes) | MIC (Salmonella typhimurium) | MIC (Pseudomonas aeruginosa) | MIC (Candida albicans) | further results |
| --- | --- | --- | --- | --- | --- | --- | --- | --- | --- | --- | --- | --- | --- | --- | --- | --- | --- | --- | --- | --- | --- |
| COc1cc(/C=C/C(=O)/C=C(O)/C=C/c2ccc(OC(=O)[C@H](CCSC)NC(=O)OC(C)(C)C)c(OC)c2)ccc1OC(=O)[C@H](CCSC)NC(=O)OC(C)(C)C | 1.59 | 34 | 1.31 | 36 | 1.01 | 44 | 0.17 | 88 | 0.64 | 23 | 101 | 1.37 | 88.5 | 16.16 | 40.84 | 2 µg/mL and 2.41 µM | 2 µg/mL and 2.41 µM | 2 µg/mL and 2.41 µM | 1 µg/mL and 1.2 µM | 1 µg/mL and 1.2 µM | Activity [12]: 0%; Activity [13]: 0; Activity [14]: 0; UI [15]: 0; Activity (Mus musculus [20]): 12.3; Activity (Mus musculus [21]): 71%; Activity (Mus musculus [22]): 115.3%; Time (Mus musculus [23]): 5.74 s; Activity (Mus musculus [24]): 14.3%; Time (Mus musculus [25]): 5.84 s; Activity (Mus musculus [26]): 70.8%; Time (Mus musculus [27]): 4.26 s; Activity (Mus musculus [28]): 56.6%; Time (Mus musculus [29]): 3.86 s; Activity (Mus musculus [30]): 47.3%; Activity (Mus musculus [31]): 112.6%; Activity [32]: Non-Toxic |
| COc1cc(/C=C/C(=O)/C=C(O)/C=C/c2ccc(OC(=O)C(C)N)c(OC)c2)ccc1OC(=O)C(C)N.Cl.Cl (centres undefined) | 1.11 | 54 | 0.94 | 54 | 0.81 | 55 | 0.22 | 84 | 0.6 | 28 | 97 | 1.91 | 63.2 | 19.75 | 27.69 | 0.125 µg/mL and 0.214 µM | 0.25 µg/mL and 0.428 µM | 0.25 µg/mL and 0.428 µM | 0.5 µg/mL and 0.857 µM | 1 µg/mL and 1.71 µM | IC50 (A549): 22.2 µM; IC50 (MCF7): 9.79 µM; IC50 (PC-3): 21.7 µM |
| COc1cc(/C=C/C(=O)/C=C(O)/C=C/c2ccc(OC(=O)[C@H](C)N)c(OC)c2)ccc1OC(=O)[C@H](C)N.Cl.Cl | 1.51 | 37 | 1.19 | 42 | 0.85 | 53 | 0.47 | 66 | 0.7 | 16 | 76 | 1.14 | 106 | 14.68 | 46.24 | 0.5 µg/mL and 0.857 µM | 0.5 µg/mL and 0.857 µM | 0.5 µg/mL and 0.857 µM | 0.25 µg/mL and 0.428 µM | 0.5 µg/mL and 0.857 µM | IC50 (A549): 21.7 µM; IC50 (MCF7): 10.7 µM; IC50 (PC-3): 31.5 µM |
| COc1cccc2c1C(=O)c1c(O)c3c(c(O)c1C2=O)C[C@@](O)(C(=O)CO)C[C@@H]3O[C@H]1C[C@H](N)[C@H](O)[C@H](C)O1 [DOXORUBICIN] |  |  |  |  |  |  |  |  |  |  |  |  |  |  |  |  |  |  |  |  | IC50 (PC-3): 38 µM |
